Experiments:
[1] = Photochromic response of polymer test squares on an optical bench; type: physicochemical; details: for ΔOD @ Saturation: UV exposure continued for 15 minutes; for ΔOD @ Saturation / Sensitivity ΔOD/min: 72° F. (22.2° C.); for Sensitivity ΔOD/min: first five (5) seconds of UV exposure, expressed per minute; for Bleach Rate T 1/2: time for absorbance of activated form to reach one half the highest absorbance at room temperature (72° F.) after removal of activating light
Description: (§1) Testing was done with the photochromic compounds prepared in Examples 1-11 in the following manner. A quantity of each photochromic compound calculated to yield a 1.5×10^-3 molal solution was added to a flask containing 50 grams of a monomer blend of 4 parts ethoxylated bisphenol A dimethacrylate (BPA 2EO DMA), 1 part poly(ethylene glycol) 600 dimethacrylate, and 0.033 weight percent 2,2'-azobis(2-methyl propionitrile) (AIBN). Each photochromic compound was dissolved into the monomer blend by stirring and gentle heating. After a clear solution was obtained, it was poured into a flat sheet mold having the interior dimensions of 2.2 mm×6 inches (15.24 cm)×6 inches (15.24 cm). The mold was sealed and placed in a horizontal air flow, programmable oven programmed to increase the temperature from 40° C. to 95° C. over […], hold the temperature at 95° C. for 3 hours, lower it to 60° C. over a 2 hour interval and then hold at 60° C. for 16 hours. After the mold was opened, the polymer sheet was cut using a diamond blade saw into 2 inch (5.1 centimeters) test squares.
The photochromic test squares prepared in Part A were tested for photochromic response on an optical bench. Prior to testing on the optical bench, the photochromic test squares were exposed to 365 nanometer ultraviolet light for about 15 minutes to activate the photochromic compounds and then placed in a 76° C. oven for about 15 minutes to bleach or inactivate the photochromic compounds. The test squares were then cooled to room temperature, exposed to fluorescent room lighting for at least 2 hours and then kept covered for at least 2 hours prior to testing on an optical bench maintained at 72° F. (22.2° C.). The bench was fitted with a 150 watt Xenon arc lamp, a remote controlled shutter, a copper sulfate bath acting as a heat sink for the arc lamp, a Schott WG-320 nm cut-off filter which removes short wavelength radiation; neutral density filter(s) and a sample holder in which the square to be tested was inserted. The power output of the optical bench, i.e., the dosage of light that the sample lens would be exposed to, was calibrated with a photochromic test square used as a reference standard. […] The UV-A detector was placed into the sample holder and the light output was measured. Adjustments to the power output were made by increasing or decreasing the lamp wattage or by adding or removing neutral density filters in the light path.
A monitoring, collimated beam of light from a tungsten lamp was passed through the square at a small angle (approximately […]) normal to the square. After passing through the square, the light from the tungsten lamp was directed to a detector through Spectral Energy Corp. GM-200 monochromator set at the previously determined visible lambda max of the photochromic compound being measured. The output signals from the detector were processed by a radiometer.
Change in optical density (ΔOD) was determined by inserting a test square in the bleached state into the sample holder, adjusting the transmittance scale to 100%, opening the shutter from the Xenon lamp to provide ultraviolet radiation to change the test square from the bleached state to an activated (i.e., darkened) state, measuring the transmittance in the activated state, and calculating the change in optical density according to the formula: ΔOD=log(100/% Ta), where % Ta is the percent transmittance in the activated state and the logarithm is to the base 10.
The Δ OD/min, which represents the sensitivity of the photochromic compound's response to UV light, was measured over the first five (5) seconds of UV exposure, then expressed on a per minute basis. The saturation optical density (Δ OD@ Saturation) was taken under identical conditions as the Δ OD/min, except UV exposure was continued for 15 minutes. […]

[2] = Visible lambda max of the activated form in polymer test squares (Varian Cary 3 UV-Visible spectrophotometer); type: physicochemical; details: activated (colored) form in test square of BPA 2EO DMA / poly(ethylene glycol) 600 dimethacrylate, 1.5×10^-3 molal
Description: as §1
The Δ OD/min, which represents the sensitivity of the photochromic compound's response to UV light, was measured over the first five (5) seconds of UV exposure, then expressed on a per minute basis. The saturation optical density (Δ OD@ Saturation) was taken under identical conditions as the Δ OD/min, except UV exposure was continued for 15 minutes. The lambda max (Vis) is the wavelength in nanometers (nm) in the visible spectrum at which the maximum absorption of the activated (colored) form of the photochromic compound in a test square occurs. The lambda max (Vis) wavelength was determined by testing the photochromic test square polymerizates of Part A in a Varian Cary 3 UV-Visible spectrophotometer. The Bleach Rate (T 1/2) is the time interval in seconds for the absorbance of the activated form of the photochromic compound in the test squares to reach one half the highest absorbance at room temperature (72° F., 22.20C.) after removal of the source of activating light.

| Compound | ΔOD @ Saturation [1] | Sensitivity ΔOD/min [1] | Bleach Rate T 1/2 [1] [s] | lambda max (Vis) [2] [nanometers] | other results |
| --- | --- | --- | --- | --- | --- |
| COc1ccc(C2(c3ccc(OC)cc3)C=Cc3c(c4c5ccccc5c(=O)oc4c4ccccc34)O2)cc1 [Compound 1A, 2,2-bis(4-methoxyphenyl)-10-oxo-2,10-dihydro[2]benzopyrano[4',3':3,4]naphtho(2,1-b)pyran] | 0.14 | 0.29 ΔOD/min | 18 | 493 | – |
| COc1ccc(C2(c3ccc(OC)cc3)C=Cc3c(c4ccccc4c4c3oc(=O)c3ccccc34)O2)cc1 [Compound 1B, 6,6-bis(4-methoxyphenyl)-10-oxo-6,10-dihydro[2]benzopyrano[3',4':3,4]naphtho(1,2-b)pyran] | 0.07 | 0.19 ΔOD/min | 24 | 537 | – |
| COc1ccc(C2(c3ccc(OC)cc3)C=Cc3c4c(c5ccccc5c3O2)-c2ccccc2CO4)cc1 [Compound 2, 6,6-bis(4-methoxyphenyl)-6,10-dihydro[2]benzopyrano[3'4':3,4]naphtho(1,2-b)pyran] | – | – | – | – | ΔOD @ Saturation ([1]; listed as 2A): 0.22; ΔOD @ Saturation ([1]; listed as 2B): 0.27; Sensitivity ΔOD/min ([1]; listed as 2A): 0.10 ΔOD/min; Sensitivity ΔOD/min ([1]; listed as 2B): 0.12 ΔOD/min; Bleach Rate T 1/2 ([1]; listed as 2A): 116 s; Bleach Rate T 1/2 ([1]; listed as 2B): 112 s; lambda max (Vis) ([2]; listed as 2A): 546 nanometers; lambda max (Vis) ([2]; listed as 2B): 432 nanometers |
| COc1ccc(C2(c3ccc(N4CCOCC4)cc3)C=Cc3c(c4c5ccccc5c(=O)oc4c4ccccc34)O2)cc1 (stereo not drawn) [Compound 3A, 2-(4-methoxyphenyl)-2-(4-morpholinophenyl)-10-oxo-2,10-dihydro[2]benzopyrano[4',3':3,4]naphtho(2,1-b)pyran] | 0.01 | 0.04 ΔOD/min | 3 | 530 | – |
| COc1ccc(C2(c3ccc(N4CCOCC4)cc3)C=Cc3c(c4ccccc4c4c3oc(=O)c3ccccc34)O2)cc1 (stereo not drawn) [Compound 3B, 6-(4-methoxyphenyl)-6-(4-morpholinophenyl)-10-oxo-6,10-dihydro[2]benzopyrano[3',4':3,4]naphtho(1,2-b)pyran] | 0.06 | 0.13 ΔOD/min | 39 | 598 | – |
| COc1ccc(C2(c3ccc(N4CCOCC4)cc3)C=Cc3c4c(c5ccccc5c3O2)-c2ccccc2C(C)(C)O4)cc1 (stereo not drawn) [Compound 4, 10,10-dimethyl-6-(4-methoxyphenyl)-6-(4-morpholinophenyl)-6,10-dihydro[2]benzopyrano[3',4':3,4]naphtho(1,2-b)pyran] | – | – | – | – | ΔOD @ Saturation ([1]; listed as 4A): 0.23; ΔOD @ Saturation ([1]; listed as 4B): 0.19; Sensitivity ΔOD/min ([1]; listed as 4A): 0.18 ΔOD/min; Sensitivity ΔOD/min ([1]; listed as 4B): 0.12 ΔOD/min; Bleach Rate T 1/2 ([1]; listed as 4A): 68 s; Bleach Rate T 1/2 ([1]; listed as 4B): 61 s; lambda max (Vis) ([2]; listed as 4A): 598 nanometers; lambda max (Vis) ([2]; listed as 4B): 472 nanometers |
| O=c1oc2c3ccccc3c3c(c2c2ccccc12)OC(c1ccccc1)(c1ccc(N2CCOCC2)cc1)C=C3 (stereo not drawn) [Compound 5A, 2-(4-morpholinophenyl)-2-phenyl-10-oxo-2,10-dihydro[2]benzopyrano[4',3':3,4]naphtho(2,1-b)pyran] | 0.12 | 0.21 ΔOD/min | 37 | 570 | – |
| COc1ccc(C2(c3ccc(OC)cc3)C=Cc3c(c4c5cc(OC)c(OC)cc5c(=O)oc4c4ccccc34)O2)cc1 [Compound 6A, 2,2-bis(4-methoxyphenyl)-12,13-dimethoxy-10-oxo-2,10-dihydro[2]benzopyrano[4',3':3,4]naphtho(2,1-b)pyran] | 0.13 | 0.19 ΔOD/min | 28 | 477 | – |
| COc1ccc(C2(c3ccc(OC)cc3)C=Cc3c(c4ccccc4c4c3oc(=O)c3cc(OC)c(OC)cc34)O2)cc1 [Compound 6B, 6,6-bis(4-methoxyphenyl)-12,13-dimethoxy-10-oxo-6,10-dihydro[2]benzopyrano[3',4':3,4]naphtho(1,2-b)pyran] | 0.10 | 0.22 ΔOD/min | 32 | 569 | – |
| COc1ccc(C2(c3ccccc3)C=Cc3c(c4ccccc4c4c3oc(=O)c3cc(OC)c(OC)cc34)O2)cc1 (stereo not drawn) [Compound 7A, 6-(4-methoxyphenyl)-6-phenyl-12,13-dimethoxy-10-oxo-6,10-dihydro[2]benzopyrano[3',4':3,4]naphtho(1,2-b)pyran] | 0.22 | 0.27 ΔOD/min | 54 | 569 | – |
| COc1ccc(C2(c3ccccc3)C=Cc3c(c4c5cc(OC)c(OC)cc5c(=O)oc4c4ccccc34)O2)cc1 (stereo not drawn) [Compound 7B, 2-(4-methoxphenyl)-2-phenyl-12,13-dimethoxy-10-oxo-2,10-dihydro[2]benzopyrano[4',3':3,4]naphtho(2,1-b)pyran] | 0.29 | 0.31 ΔOD/min | 47 | 464 | – |
| COc1ccc(C2(c3ccccc3)C=Cc3c4c(c5ccccc5c3O2)-c2cc(OC)c(OC)cc2C(C)(C)O4)cc1 (stereo not drawn) [Compound 8, 6-(4-methoxyphenyl)-6-phenyl-12,13-dimethoxy-10,10-dimethyl-6,10-dihydro[2]benzopyrano [3',4':3,4]naphtho(1,2-b)pyran] | 0.21 | 0.08 ΔOD/min | 216 | 602 | – |
| COc1ccc(C2(c3ccc(OC)cc3)C=Cc3c(c4c5ccc(OC)cc5c(=O)oc4c4ccccc34)O2)cc1 [Compound 9A, 2,2-bis(4-methoxyphenyl)-12-methoxy-10-oxo-2,10-dihydro[2]benzopyrano[4',3':3,4]naphtho(2,1-b)pyran] | 0.12 | 0.25 ΔOD/min | 24 | 478 | – |

From patent publication US6022495A, “Photochromic benzopyrano-fused naphthopyrans” (Transitions Optical, Inc., priority 1998, dated 2000)
